Entries after “also recorded” stand apart in the source; their conditions may differ.
Legend:
TNF-α/TNFR1 interface = TNF-α/TNFR1 interface (Homo sapiens, UniProt P01375); conditions: target TNF-α/TNFR1 interface, literature; cited from earlier work
[1] = test system: human dermal fibroblasts (HDFs); test: Cell viability (MTT) assay in human dermal fibroblasts; format: cell-based; conditions: HDFs, 24 hours
Protocol: FIG. 8A is a graph showing the effects of TIM1 and a solvent thereof, DMSO, on the viability of human dermal fibroblasts, in which cells (10^4/well) were treated with DMSO at 3 different concentrations (0.5, 1, and 2%) and TIM1 at 8 different concentrations (1, 3.125, 6.25, 12.5, 25, 50, 100, and 200 μM) for 24 hours, and the cell viability was monitored by an MTT assay. FIG. 8B is a graph showing the effect of TIM1 on the viability of a mouse fibrosarcoma cell line [L929 (1.5×10^4/well)] under the same conditions as in FIG. 8A. All experiments were independently performed 4 times, and mean±SEM of the independent experiments was calculated using a two-tailed paired Student's t-test (*P<0.05).
In order to measure cell viability, a colorimetric […] (MTT) assay (Sigma-Aldrich Co.) was performed. HDFs were seeded at a density of 10^4/well in 96-well plates (BD Biosciences, San Jose, CA, USA), grown overnight, and then treated with a test compound at various concentrations for 24 hours. The next day, the medium was replaced with a medium (100 μl/well) containing a 10% MTT solution, followed by incubated at 37° C. for 3 hours. This solution was replaced with DMSO (100 μl/well), and the plates were incubated at room temperature for 30 minutes. Thereafter, the plates were read at a wavelength of 540 nm using a microplate spectrophotometer system (Molecular Devices, Silicon Valley, California).

[2] = biological target: T1, recombinant human TNF-α (rhTNF-α) (Homo sapiens, UniProt P01375); test: TNF-α-mediated hIL-8 secretion in HDFs (ELISA); format: cell-based; conditions: for inhibition of TNF-induced hIL-8, TIM1 derivatives compared with TIM1: HDFs, 1, 10 and 50 μM, rhTNF-α 1 ng/ml
T1 construct: purchased Miltenyi Biotec
T1 sequence (P01375 77-233 limits assumed): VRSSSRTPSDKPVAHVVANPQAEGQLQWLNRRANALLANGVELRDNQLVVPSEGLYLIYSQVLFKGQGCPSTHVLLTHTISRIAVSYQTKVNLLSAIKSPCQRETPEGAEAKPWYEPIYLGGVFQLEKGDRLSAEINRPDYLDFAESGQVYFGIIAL
Protocol: (§1) HDFs were seeded at a density of 10^4/well in a 96-well plate (BD Biosciences) and grown overnight. The cells were treated for 24 hours with a 1-hour-pre-incubated mixture of rhTNF-α and test compounds. IL-8 secretion was assessed by a human IL-8 uncoated ELISA kit (eBioscience, Inc., San Diego, CA, USA), and IL-6 secretion level was assessed by a human IL-6 ELISA MAX™ Deluxe kit (BioLegend, San Diego, CA, USA). The microtiter plates were then analyzed at an appropriate wavelength using a microplate spectrophotometer system (Molecular Devices, Silicon Valley, California).

[3] = biological target: T1, recombinant human TNF-α (rhTNF-α); test: TNF-α-mediated hIL-6 secretion in HDFs (ELISA); format: cell-based
Protocol: as §1

[4] = biological target: T2, recombinant mouse TNF-α (rmTNF-α) (Mus musculus, UniProt P06804); test: Cell death attenuation assay, act-D-sensitized L929 cells with rmTNF-α; format: cell-based; conditions: act-D-sensitized L929, rmTNF-α 1 ng/ml, 1-100 μM
T2 construct: purchased Miltenyi Biotec
T2 sequence (P06804 80-235 limits assumed): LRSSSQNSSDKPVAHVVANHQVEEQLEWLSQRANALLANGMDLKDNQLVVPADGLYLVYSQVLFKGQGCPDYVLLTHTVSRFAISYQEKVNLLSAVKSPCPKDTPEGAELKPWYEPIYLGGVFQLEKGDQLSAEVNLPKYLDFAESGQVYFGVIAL
Protocol: HDFs (10^4/well) and L929 cell lines (1.5×10^4/well) were seeded in 96-well plates and grown overnight under appropriate conditions. The next day, HDFs and L929 cells were pretreated with 1 μg/ml act-D and 0.1 μg/ml act-D, respectively, followed by incubated for 30 minutes. Thereafter, a 1-hour-preincubated mixture of 10 ng/ml rhTNFα with test compounds or 1 ng/ml rmTNFα with test compounds, was applied to HDFs and L929 cells, respectively. The cells were incubated for 24 hours post-treatment, and survival was measured by the MTT assay. Cell viability was calculated with reference to the no-treatment control group. The obtained values were normalized with respect to the act-D treatment group and then used to calculate death attenuation (%) rate using the following equation: […]

[5] = test system: collagen-induced polyarthritis (CIA); test: Mouse model of collagen-induced polyarthritis (CIA), oral TIM1c; format: in vivo
Text: FIG. 6B is a graph showing body weight, FIG. 6C is a graph showing a squeaking number (the value 0 indicating no sign of pain), FIG. 6D is a graph showing an increase in paw volume, FIG. 6E is a graph showing an arthritis index, that is, the severity of mouse limb arthritis. The number of arthritic limbs was quantified, and each limb was assigned a severity score of 0-4, the data representing the number of arthritic limbs per arthritic mouse and the mean severity score of arthritis in each limb, black arrows representing the start date of drug administration, NOR, n=4; CIA, n=4; TIM1c_2 mg/ml, n=4; TIM1c_20 mg/ml, n=5, values being represented as means±SEM. #p<0.05, ##p<0.01, ###p<0.001 vs. NOR group and p<0.05, **p<0.01, ***p<0.001 vs. CIA group (two-way ANOVA followed by Bonferroni correction).
Male DBA/1J mice (20-23 g) were purchased from Central Lab. Animal Inc. (Seoul, Korea). Animals were housed in a limited-access rodent facility with a maximum of 4 animals per polycarbonate cage, with free access to pelleted food and water. The temperature was maintained at 22-24° C. with a 12/12-hour light/dark cycle. Animals were acclimatized for at least 1 week prior to starting the experiment. The number of animals used per experiment or test and the potential suffering were minimized. All methods were approved by the Animal Care and Use Committee of Kyung-Hee University, Korea. All procedures were executed in accordance to the Guide for the Care and Use of Laboratory Animals by the Korea National Institute of Health.
Male DBA/1J mice (6-week-old) were subcutaneously injected with 50 μl of an emulsion containing 100 μg of chicken collagen type II (Sigma-Aldrich Co., St. Louis, MO, USA) dissolved in 25 μl of acetic acid and 25 μl of a complete Freund's adjuvant (Sigma-Aldrich Co.) at the base of the tail thereof, and the day of the first immunization was defined as day 0. On Day 14, the mice were injected with a booster of 50 μl of the emulsion having the same composition as the first immunization, except that an incomplete Freund's adjuvant was used. All mice were randomly divided into 4 experimental groups: non-treated normal group (NOR, n=4), collagen-injected and vehicle-treated arthritis control group (CIA, n=4), 2 mg/kg TIM1c-treated arthritis group (TIM1c 2 mg/ml, n=4), and 20 mg/kg TIM1c-treated arthritis group (TIM1c 20 mg/ml, n=5). The treatment groups were orally fed 2 or 20 mg/kg of TIM1c every 2 days from day 15 to day 60 after the first immunization.
In order to evaluate the progression of arthritis in CIA mice, four parameters (body weight, paw volume increase, squeaking score, and arthritis score) were measured after the first immunization with collagen and complete Freund's adjuvant. The body weights of the mice were measured using a digital balance (Mettler-Toledo Inc., Columbus, OH, USA). In order to assess nociception and hyperalgesia, ankle pain was evaluated on a scale measuring squeaking. Squeaking included any vocalization evoked by ankle flexion and extension. The flexion and extension procedures were repeated 10 times every 5 seconds, and the mouse was rated 0 (no vocalization) or 1 (vocalization) for each hindlimb thereof. The total number of vocalizations detected by the observer was counted as the number of squeaks. Paw swelling was measured by volume displacement of an electrolyte solution using a water-displacement plethysmometer (Ugo-Basil Biological Research Apparatus Co., Comerio-Varese, Italy), as previously described (Bang J. S. et al. (2009) Arthritis Res. Ther. 11(2):R49). The hindlimbs were immersed to the line of the hairy skin, and the volumes thereof were read on a digital display. The increase in paw volume was represented compared to day 0, which was defined as zero. […]

[6] = HDFs, 1, 10, 50 and 100 μM, 24 hours

Sequence of TNF-α/TNFR1 interface (P01375 77-233 limits assumed, species assumed): as the sequence (P01375 77-233 limits assumed) above

## C=C1C(=O)O[C@@H]2C[C@@H](C)[C@]34C[C@]5(C(=O)O[C@H]6C[C@@]7(C)C(=C[C@H]65)[C@H](C)CC[C@@H]7O)[C@H](C(C)=C3C[C@@H]12)[C@@H]4OC(C)=O [Japonicone A]
TNF-α/TNFR1 interface
  IC50: ~10 µM

## Cc1cc2occ(CN(C)CCN(C)Cc3cn(-c4cccc(C(F)(F)F)c4)c4ccccc34)c(=O)c2cc1C [SPD304, reference compound]
[1]
  cytotoxicity (cell viability, MTT assay): showed cytotoxicity; also recorded: severe cytotoxicity at high concentrations; also recorded: strong cytotoxicity at concentrations exceeding 1 μM; also recorded: significant cytotoxic effects were exhibited at concentrations of 10, 50 or 100 μM
[2]; HDFs, 10 μM
  secretion of hIL-8 at 10 μM: increase the secretion of cytokines
[2]; HDFs, 50 μM
  secretion of hIL-8 at 50 μM: completely inhibits
[2]; [6]
  inhibition of TNF-α-mediated hIL-8 secretion: weak at 10 μM but stronger at 1 μM
[3]; HDFs, 10 μM
  secretion of hIL-6 at 10 μM: increase the secretion of cytokines
[3]; HDFs, 50 μM
  secretion of hIL-6 at 50 μM: completely inhibited
[3]; [6]
  inhibition of TNF-α-mediated hIL-6 secretion: weak at 10 μM but stronger at 1 μM
[4]
  inhibition of rmTNF-α-mediated proapoptotic pathway / cell death: did not reduce the death of these cells at concentrations other than 1 μM

## CCCn1c(C)cc(-c2csc(NC(=O)c3nn(CC)c(=O)c4ccccc34)n2)c1C [TIM1-7, N-[4-(2,5-dimethyl-1-propylpyrrol-3-yl)-1,3-thiazol-2-yl]-3-ethyl-4-oxophthalazine-1-carboxamide]
[1]
  cytotoxicity (cell viability, MTT assay): negligible cytotoxicity
[2]; 24 hours
  inhibition of TNF-induced hIL-8, TIM1 derivatives compared with TIM1: concentration-dependent inhibition of TNF-induced hIL-8 greater than that of TIM1

## Cc1csc(N(C(=O)c2nn(C)c(=O)c3ccccc23)c2ccccc2)n1 [TIM1-10, 3-methyl-N-(4-methy1-1,3-thiazol-2-yl)-4-oxo-N-phenylphthalazine-1-carboxamide]
[1]
  cytotoxicity (cell viability, MTT assay): negligible cytotoxicity
[2]; 24 hours
  inhibition of TNF-induced hIL-8, TIM1 derivatives compared with TIM1: concentration-dependent inhibition of TNF-induced hIL-8 greater than that of TIM1

## CCCCCCn1nc(C(=O)Nc2nc3ccccc3s2)c2ccccc2c1=O [TIM1-11, N-(1,3-benzothiazol-2-yl)-3-hexyl-4-oxophthalazine-1-carboxamide]
[1]
  cytotoxicity (cell viability, MTT assay): negligible cytotoxicity
[2]; 24 hours
  inhibition of TNF-induced hIL-8, TIM1 derivatives compared with TIM1: concentration-dependent inhibition of TNF-induced hIL-8 greater than that of TIM1

## Cc1cc(-c2csc(NC(=O)c3nn(C)c(=O)c4ccccc34)n2)c(C)n1CCc1ccccc1 [TIM1-14, N-{4-[2,5-dimethyl-1-(2-phenylethyl)pyrrol-3-yl]-1,3-thiazol-2-yl}-3-methyl-4-oxophthalazine-1-carboxamide]
[1]
  cytotoxicity (cell viability, MTT assay): negligible cytotoxicity
[2]; 24 hours
  inhibition of TNF-induced hIL-8, TIM1 derivatives compared with TIM1: concentration-dependent inhibition of TNF-induced hIL-8 greater than that of TIM1

## CCCNc1nc(-c2cc(C)n(NC(=O)c3nn(C)c(=O)c4ccccc34)c2C)cs1.Cl [TIM1c, N-{2,5-dimethyl-3-[2-(propylamino)-1,3-thiazol-4-yl]pyrrol-l-yl}-3-methyl-4-oxophthalazine-1-carboxamide hydrochloride]
[1]
  cytotoxicity (cell viability, MTT assay): negligible cytotoxicity
[2]; 24 hours, hydrochloride
  inhibition of TNF-induced hIL-8, TIM1 derivatives compared with TIM1: concentration-dependent inhibition of TNF-induced hIL-8 greater than that of TIM1; also recorded: maximally inhibited
[5]; 2 mg/kg/2 days
  disease severity at low dose: slightly ameliorate disease severity
[5]; 20 mg/kg/2 days
  induction of RA at high dose: significantly decreased to such an extent that the limbs of the animals were almost identical to those of the normal group
[5]; 2 or 20 mg/kg every 2 days
  body weight: weight gain
  paw volume: paw volume decrease
[5]; 2 or 20 mg/kg every 2 days, day 15 to day 60
  RA symptoms versus CIA mice: Dose-dependent amelioration
[5]; CIA mice
  number of squeaks: inhibited
[5]; treatment group versus CIA
  arthritis index (clinical score): significantly decreased

## Cc1cc(-c2csc(N(C)C)n2)c(C)n1NC(=O)c1nn(C)c(=O)c2ccccc12 [TIM1d, N-{3-[2-(dimethylamino)-1,3-thiazol-4-yl]-2,5-dimethylpyrrol-1-yl}-3-methyl-4-oxophthalazine-1-carboxamide]
[1]
  cytotoxicity (cell viability, MTT assay): negligible cytotoxicity
[2]; 24 hours
  inhibition of TNF-induced hIL-8, TIM1 derivatives compared with TIM1: concentration-dependent inhibition of TNF-induced hIL-8 greater than that of TIM1

## Erythrosine B
TNF-α/TNFR1 interface
  IC50: 5 µM
